Patent US20230107642A1 (Erasca, Inc., priority 2020, published 2023)

Target: T1, Cys12 of the KRAS 4B G12C protein (Homo sapiens, UniProt P01116, G12C)
T1 construct: This protein contained 188 amino acids in total, including an N-terminal 6-Histidine tag; made in house; host or cells: E. coli BL21
Test: In vitro covalent adduct formation (CAF) assay, LC-MS intact mass
Format: binding
Conditions: 10 uM compound, 60 min
Procedure, shortened: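 GDP-loaded (>95%) His-TEV-tagged KRAS 4B G12C (residues 1–169), 5 μM in TBS pH 7.4, incubated with 10 μM compound (4% DMSO) at 22° C for one hour. Intact-protein LC-MS gave free:adduct ratios, reported as percent protein modified; duplicate runs.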

SMILES	% CAF 10 uM @ 60 min [%]
C=CC(=O)N1[C@H](C)CN(c2nc(=O)n3c4c(c(-c5ccc(F)cc5F)c(C(F)(F)F)cc24)SC[C@@H]3COCOC)C[C@@H]1C (atropisomer, axis not shown) [Example 1320, (3S,10R)-7-((3S,5R)-4-acryloyl-3,5-dimethylpiperazin-1-yl)-10-(2,4-difluorophenyl)-3-((methoxymethoxy)methyl)-9-(trifluoromethyl)-2,3-dihydro-5H-[1,4]thiazino[2,3,4-ij]quinazolin-5-one]	97.4
C=CC(=O)N1C[C@H](C)N(c2nc(=O)n3c4c(c(-c5ccc(F)cc5F)c(C(F)(F)F)cc24)SC[C@@H]3CN2C[C@@H]3C[C@H]2CO3)C[C@H]1C (atropisomer, axis not shown) [Example 1322, (3S,10S)-3-(((1S,4S)-2-oxa-5-azabicyclo[2.2.1]heptan-5-yl)methyl)-7-((2S,5R)-4-acryloyl-2,5-dimethylpiperazin-1-yl)-10-(2,4-difluorophenyl)-9-(trifluoromethyl)-2,3-dihydro-5H-[1,4]thiazino[2,3,4-ij]quinazolin-5-one]	96.2
C=CC(=O)N1C[C@H](C)N(c2nc(=O)n3c4c(c(-c5ccc(F)cc5F)c(C(F)(F)F)cc24)SC[C@@H]3CN2C[C@@H]3C[C@H]2CO3)C[C@H]1C (atropisomer, axis not shown) [Example 1323, (3S,10R)-3-(((1S,4S)-2-oxa-5-azabicyclo[2.2.1]heptan-5-yl)methyl)-7-((2S,5R)-4-acryloyl-2,5-dimethylpiperazin-1-yl)-10-(2,4-difluorophenyl)-9-(trifluoromethyl)-2,3-dihydro-5H-[1,4]thiazino[2,3,4-ij]quinazolin-5-one]	96.1
C=CC(=O)N1[C@H](C)CN(c2nc(=O)n3c4c(c(-c5ccc(F)cc5F)c(C(F)(F)F)cc24)SC[C@@H]3CN(C)C)C[C@@H]1C (atropisomer, axis not shown) [Example 1324, (3S,10R)-7-((3S,5R)-4-acryloyl-3,5-dimethylpiperazin-1-yl)-10-(2,4-difluorophenyl)-3-((dimethylamino)methyl)-9-(trifluoromethyl)-2,3-dihydro-5H-[1,4]thiazino[2,3,4-ij]quinazolin-5-one]	82.2
C=CC(=O)N1[C@H](C)CN(c2nc(=O)n3c4c(c(-c5ccc(F)cc5F)c(C(F)(F)F)cc24)SC[C@@H]3CN(C)C)C[C@@H]1C (atropisomer, axis not shown) [Example 1325, (3S,10S)-7-((3S,5R)-4-acryloyl-3,5-dimethylpiperazin-1-yl)-10-(2,4-difluorophenyl)-3-((dimethylamino)methyl)-9-(trifluoromethyl)-2,3-dihydro-5H-[1,4]thiazino[2,3,4-ij]quinazolin-5-one]	81.4
C=CC(=O)N1C[C@H](C)N(c2nc(=O)n3c4c(c(-c5ccc(F)cc5F)c(C(F)(F)F)cc24)SC[C@@H]3COCOC)C[C@H]1C (atropisomer, axis not shown) [Example 1326, (3S,10S)-7-((2S,5R)-4-acryloyl-3,5-dimethylpiperazin-1-yl)-10-(2,4-difluorophenyl)-3-((methoxymethoxy)methyl)-9-(trifluoromethyl)-2,3-dihydro-5H-[1,4]thiazino[2,3,4-ij]quinazolin-5-one]	82.3
C=CC(=O)N1C[C@H](C)N(c2nc(=O)n3c4c(c(-c5ccc(F)cc5F)c(C(F)(F)F)cc24)SC[C@@H]3COCOC)C[C@H]1C (atropisomer, axis not shown) [Example 1327, (3S,10R)-7-((2S,5R)-4-acryloyl-3,5-dimethylpiperazin-1-yl)-10-(2,4-difluorophenyl)-3-((methoxymethoxy)methyl)-9-(trifluoromethyl)-2,3-dihydro-5H-[1,4]thiazino[2,3,4-ij]quinazolin-5-one]	86.3
C=CC(=O)N1[C@H](C)CN(c2nc(=O)n3c4c(c(-c5ccc(F)cc5F)c(C(F)(F)F)cc24)SC[C@@H]3CN2CCN(CC)CC2)C[C@@H]1C (atropisomer, axis not shown) [Example 1329, (3S,10R)-7-((3S,5R)-4-acryloyl-3,5-dimethylpiperazin-1-yl)-10-(2,4-difluorophenyl)-3-((4-ethylpiperazin-1-yl)methyl)-9-(trifluoromethyl)-2,3-dihydro-5H-[1,4]thiazino[2,3,4-ij]quinazolin-5-one]	95.4
C=CC(=O)N1[C@H](C)CN(c2nc(=O)n3c4c(c(-c5ccc(F)cc5F)c(C(F)(F)F)cc24)SC[C@@H]3CN2CCN(CC)CC2)C[C@@H]1C (atropisomer, axis not shown) [Example 1330, (3S,10S)-7-((3S,5R)-4-acryloyl-3,5-dimethylpiperazin-1-yl)-10-(2,4-difluorophenyl)-3-((4-ethylpiperazin-1-yl)methyl)-9-(trifluoromethyl)-2,3-dihydro-5H-[1,4]thiazino[2,3,4-ij]quinazolin-5-one]	85
C=CC(=O)N1[C@H](C)CN(c2nc(=O)n3c4c(c(-c5cc(Cl)c(F)cc5F)c(C(F)(F)F)cc24)SC[C@@H]3CN2C[C@@H]3C[C@H]2CO3)C[C@@H]1C (atropisomer, axis not shown) [Example 1331, (3S,10R)-3-(((1S,4S)-2-oxa-5-azabicyclo[2.2.1]heptan-5-yl)methyl)-7-((3S,5R)-4-acryloyl-3,5-dimethylpiperazin-1-yl)-10-(5-chloro-2,4-difluorophenyl)-9-(trifluoromethyl)-2,3-dihydro-5H-[1,4]thiazino[2,3,4-ij]quinazolin-5-one]	94.5
C=CC(=O)N1[C@H](C)CN(c2nc(=O)n3c4c(c(-c5cc(Cl)c(F)cc5F)c(C(F)(F)F)cc24)SC[C@@H]3CN2C[C@@H]3C[C@H]2CO3)C[C@@H]1C (atropisomer, axis not shown) [Example 1332, (3S,10S)-3-(((1S,4S)-2-oxa-5-azabicyclo[2.2.1]heptan-5-yl)methyl)-7-((3S,5R)-4-acryloyl-3,5-dimethylpiperazin-1-yl)-10-(5-chloro-2,4-difluorophenyl)-9-(trifluoromethyl)-2,3-dihydro-5H-[1,4]thiazino[2,3,4-ij]quinazolin-5-one]	87
C=CC(=O)N1C[C@H](C)N(c2nc(=O)n3c4c(c(-c5cc(Cl)c(F)cc5F)c(C(F)(F)F)cc24)SC[C@@H]3CN2C[C@@H]3C[C@H]2CO3)C[C@H]1C (atropisomer, axis not shown) [Example 1334, (3S,10R)-3-(((1S,4S)-2-oxa-5-azabicyclo[2.2.1]heptan-5-yl)methyl)-7-((2S,5R)-4-acryloyl-2,5-dimethylpiperazin-1-yl)-10-(5-chloro-2,4-difluorophenyl)-9-(trifluoromethyl)-2,3-dihydro-5H-[1,4]thiazino[2,3,4-ij]quinazolin-5-one]	80
C=CC(=O)N1C[C@H](C)N(c2nc(=O)n3c4c(c(-c5cc(Cl)c(F)cc5F)c(C(F)(F)F)cc24)SC[C@@H]3CN2C[C@@H]3C[C@H]2CO3)C[C@H]1C (atropisomer, axis not shown) [Example 1335, (3S,10S)-3-(((1S,4S)-2-oxa-5-azabicyclo[2.2.1]heptan-5-yl)methyl)-7-((2S,5R)-4-acryloyl-2,5-dimethylpiperazin-1-yl)-10-(5-chloro-2,4-difluorophenyl)-9-(trifluoromethyl)-2,3-dihydro-5H-[1,4]thiazino[2,3,4-ij]quinazolin-5-one]	29.7
C=CC(=O)N1CCN(c2nc(=O)n3c4c(c(-c5cc(Cl)c(F)cc5F)c(C(F)(F)F)cc24)SC[C@@H]3CN2CCN(CC)CC2)CC1 (atropisomer, axis not shown) [Example 1337, (3S,10S)-7-(4-acryloylpiperazin-1-yl)-10-(5-chloro-2,4-difluorophenyl)-3-((4-ethylpiperazin-1-yl)methyl)-9-(trifluoromethyl)-2,3-dihydro-5H-[1,4]thiazino[2,3,4-ij]quinazolin-5-one]	96.7
C=CC(=O)N1CCN(c2nc(=O)n3c4c(c(-c5cc(Cl)c(F)cc5F)c(C(F)(F)F)cc24)SC[C@@H]3CN2CCN(CC)CC2)CC1 (atropisomer, axis not shown) [Example 1338, (3S,10R)-7-(4-acryloylpiperazin-1-yl)-10-(5-chloro-2,4-difluorophenyl)-3-((4-ethylpiperazin-1-yl)methyl)-9-(trifluoromethyl)-2,3-dihydro-5H-[1,4]thiazino[2,3,4-ij]quinazolin-5-one]	99
C=CC(=O)N1[C@H](C)CN(c2nc(=O)n3c4c(c(-c5cc(Cl)c(F)cc5F)c(C(F)(F)F)cc24)SC[C@@H]3CN2CCN(CC)CC2)C[C@@H]1C (atropisomer, axis not shown) [Example 1339]	68.7
C=CC(=O)N1[C@H](C)CN(c2nc(=O)n3c4c(c(-c5cc(Cl)c(F)cc5F)c(C(F)(F)F)cc24)SC[C@@H]3CN2CCN(CC)CC2)C[C@@H]1C (atropisomer, axis not shown) [Example 1340, (3S,10S)-7-((3S,5R)-4-acryloyl-3,5-dimethylpiperazin-1-yl)-10-(5-chloro-2,4-difluorophenyl)-3-((4-ethylpiperazin-1-yl)methyl)-9-(trifluoromethyl)-2,3-dihydro-5H-[1,4]thiazino[2,3,4-ij]quinazolin-5-one]	89.4
C=CC(=O)N1CCN(c2nc(=O)n3c4c(c(-c5cc(Cl)c(F)cc5F)c(C(F)(F)F)cc24)SC[C@@H]3CN2C[C@@H]3C[C@H]2CO3)CC1 (atropisomer, axis not shown) [Example 1341, (3S,10R)-3-(((1S,4S)-2-oxa-5-azabicyclo[2.2.1]heptan-5-yl)methyl)-7-(4-acryloylpiperazin-1-yl)-10-(5-chloro-2,4-difluorophenyl)-9-(trifluoromethyl)-2,3-dihydro-5H-[1,4]thiazino[2,3,4-ij]quinazolin-5-one]	97.4
